The target in assay [1] is T1, human 5-HT2A receptor (Homo sapiens, UniProt P28223). The settings on record: cited from earlier work.
For assay [2], the target named is T2, human 5-HT2C receptor (Homo sapiens, UniProt P28335).
T2 sequence (P28335 33-458): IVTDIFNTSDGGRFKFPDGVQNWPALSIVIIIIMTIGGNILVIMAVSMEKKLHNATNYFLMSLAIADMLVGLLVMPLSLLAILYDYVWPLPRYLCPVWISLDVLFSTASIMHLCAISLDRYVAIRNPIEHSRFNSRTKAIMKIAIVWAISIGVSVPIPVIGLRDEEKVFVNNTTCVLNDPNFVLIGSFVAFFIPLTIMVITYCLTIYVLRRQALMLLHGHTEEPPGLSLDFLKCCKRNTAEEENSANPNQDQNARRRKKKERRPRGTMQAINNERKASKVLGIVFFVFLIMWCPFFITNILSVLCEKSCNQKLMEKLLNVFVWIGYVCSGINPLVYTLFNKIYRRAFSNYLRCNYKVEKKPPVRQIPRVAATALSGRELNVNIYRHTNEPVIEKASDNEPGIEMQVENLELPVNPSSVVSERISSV
The conditions noted are these: cited from earlier work.

Assay [3] has as its target 5-HT receptor in human colon longitudinal muscle (Homo sapiens, UniProt P41595). Kind of assay: 5-HT-induced potentiation of electrically stimulated contractions of human colon longitudinal muscle strips. It counts as cell-based.
Assay [4] addresses T3, 5-HT2B receptor (Homo sapiens, UniProt P41595). The conditions noted are these: cited from earlier work.
Target sequence in this assay (P41595 whole entry): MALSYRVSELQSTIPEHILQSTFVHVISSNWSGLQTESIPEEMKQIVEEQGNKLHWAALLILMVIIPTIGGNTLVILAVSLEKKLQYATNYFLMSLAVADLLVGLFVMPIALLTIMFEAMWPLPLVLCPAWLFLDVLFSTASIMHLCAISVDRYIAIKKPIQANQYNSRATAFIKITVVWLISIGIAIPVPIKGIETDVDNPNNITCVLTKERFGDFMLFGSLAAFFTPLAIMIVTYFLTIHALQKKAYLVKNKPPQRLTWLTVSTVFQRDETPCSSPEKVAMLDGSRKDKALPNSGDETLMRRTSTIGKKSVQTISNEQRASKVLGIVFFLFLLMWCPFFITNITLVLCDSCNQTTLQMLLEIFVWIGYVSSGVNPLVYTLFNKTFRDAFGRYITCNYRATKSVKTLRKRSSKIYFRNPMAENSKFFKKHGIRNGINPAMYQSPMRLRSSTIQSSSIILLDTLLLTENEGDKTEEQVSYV
In assay [5] the target is T4, human 5-HT4 receptor (Homo sapiens, UniProt Q13639). The conditions noted are these: marked #; cited from earlier work.
T4 sequence (Q13639 whole entry): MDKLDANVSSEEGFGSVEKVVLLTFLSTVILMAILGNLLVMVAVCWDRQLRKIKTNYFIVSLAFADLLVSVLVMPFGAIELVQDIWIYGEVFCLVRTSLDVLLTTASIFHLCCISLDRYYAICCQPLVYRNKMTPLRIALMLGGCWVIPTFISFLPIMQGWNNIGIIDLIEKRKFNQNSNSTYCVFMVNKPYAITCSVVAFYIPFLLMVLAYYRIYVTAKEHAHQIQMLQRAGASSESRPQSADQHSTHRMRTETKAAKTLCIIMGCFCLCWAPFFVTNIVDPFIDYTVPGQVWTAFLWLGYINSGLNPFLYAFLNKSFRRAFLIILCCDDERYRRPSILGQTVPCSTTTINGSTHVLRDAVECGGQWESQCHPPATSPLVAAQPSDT
The target of assay [6] is T4, human 5-HT4 receptor. The settings on record: cited from earlier work.
In assay [7] the target is T3, 5-HT2B receptor. The conditions noted are these: cited from earlier work. The source holds these as a separate data set.
Target sequence in this assay (P41595 whole entry): as the sequence (P41595 whole entry) above
Assay [8] deals with T1, human 5-HT2A receptor. The conditions noted are these: cited from earlier work. This is another data set of the same source.
Assay [9] relates to 5-HT receptor in human colon longitudinal muscle. Description: 5-HT-induced potentiation of electrically stimulated contractions of human colon longitudinal muscle strips. It counts as cell-based.
Assay [10] concerns the target T3, 5-HT2B receptor. The conditions noted are these: cited from earlier work. The source holds these as a separate data set.
Target sequence in this assay (P41595 whole entry, looked up): as the sequence (P41595 whole entry) above
Assay [11] concerns the target T2, human 5-HT2C receptor. The settings on record: cited from earlier work. The source holds these as a separate data set.

Like-named read-outs stand apart in the source and are kept apart here. Marks after values point to notes of the source that are not given here.

T1 sequence (P28223 whole entry): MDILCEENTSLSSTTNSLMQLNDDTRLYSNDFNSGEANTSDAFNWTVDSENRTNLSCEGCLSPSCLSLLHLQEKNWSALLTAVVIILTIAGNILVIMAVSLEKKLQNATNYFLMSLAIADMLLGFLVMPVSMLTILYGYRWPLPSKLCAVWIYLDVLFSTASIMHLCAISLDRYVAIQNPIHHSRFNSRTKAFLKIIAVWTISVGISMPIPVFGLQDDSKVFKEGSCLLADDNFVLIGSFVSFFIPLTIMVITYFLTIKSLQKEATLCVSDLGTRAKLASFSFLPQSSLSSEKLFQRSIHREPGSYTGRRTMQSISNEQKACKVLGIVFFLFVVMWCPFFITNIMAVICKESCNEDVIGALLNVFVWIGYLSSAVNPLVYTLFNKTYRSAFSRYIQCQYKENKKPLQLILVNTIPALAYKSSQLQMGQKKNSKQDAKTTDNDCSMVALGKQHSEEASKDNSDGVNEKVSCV
Chain of 5-HT receptor in human colon longitudinal muscle (Homo sapiens, UniProt P41595) (P41595 whole entry): as the sequence (P41595 whole entry) above

In the case of `Cc1cc2c(cc1Cl)N(C(=O)Nc1ccc(Oc3cccnc3C)nc1)CC2` [SB 242084], the “affinity from binding data (#) at human 5-HT2A receptor” value in [1] is reported as 6.8^#. The “affinity from binding data (#) at human 5-HT2C receptor” value in assay [2] is recorded as <6.0^#. In addition, in [3] (human colon longitudinal muscle, at least 3 concentrations (methiothepin a single concentration), at least 3 donors), the “pKB estimate for antagonists at the 5-HT receptor in colon” value is reported as 6.3 ± 0.2. The “affinity from binding data (#) at human 5-HT2B receptor” value in assay [4] is 7.0^#. The “affinity from binding data (#) at human 5-HT4 receptor” value in [5] is <5.0^#.

Take `COc1ccc2[nH]cc(CCN)c2c1` [5-MeOT]: in [6], the “pEC50 for agonists at human 5-HT4 receptor” value is given as 6.2. In assay [7], the “pEC50 for agonists at human 5-HT2B receptor” value is listed as 7.6. Besides, the “pEC50 for agonists at the 5-HT receptor in colon” value in assay [3] is on record as 6.8 ± 0.2.

`Cc1cc(NC(=O)Nc2ccc3c(ccn3C)c2)sn1` [SB 204741, N-(1-methyl-5-indolyl)-N′-(3-methyl-5-isothiazolyl) urea]: the “affinity at human 5-HT4 receptor” value in assay [6] (neither * nor # printed) is reported as less than 5.0. In addition, the “pKB or pA2 for antagonists (*) at human 5-HT2A receptor” value in assay [8] is recorded as <5.0*. Also, the “pKB or pA2 for antagonists (*) at human 5-HT2B receptor” value in assay [7] (marked *) is reported as 7.0*. In addition, in [3], the Kb was 158 nM and the “antagonist potency against 5-HT response in human colon” value was determined as 6.8.

`CN1[C@@H]2CC[C@H]1C[C@@H](OC(=O)C(CO)c1ccccc1)C2` (stereo partly shown) [atropine]: the “effect on contractile responses of colon smooth muscle to electrical stimulation” value in assay [9] is given as “inhibited”.

Take `CC(N)Cc1c[nH]c2ccc(O)cc12` (stereo not drawn) [Alpha-Me5-HT]: the “pEC50 for agonists at human 5-HT4 receptor” value in [6] was 6.2. Besides, the “pEC50 for agonists at human 5-HT2B receptor” value in assay [7] is 8.4. In assay [3] (human colon longitudinal muscle, mean ± s.e.mean, at least 3 donors), the “pEC50 for agonists at the 5-HT receptor in colon” value is reported as 8.5 ± 0.1.

In the case of `Cl.Cn1ccc2cc(NC(=O)Nc3cccnc3)ccc21` [SB-200646, N-(1-methyl-5-indolyl)-N′-(3-pyridyl)urea hydrochloride], in [10], the “selectivity between 5-HT2B and 5-HT2C receptors” value is given as “Non-selective”.

In the case of `CC[C@@H](CO)NC(=O)[C@@H]1C=C2c3cccc4c3c(cn4C)C[C@H]2N(C)C1` [Methysergide], the “pKB or pA2 for antagonists (*) at human 5-HT4 receptor” value (from here on “pKB or pA2 … at human 5-HT4 receptor”) in [6] (marked *) is <5.0*. For the same compound, in [11], the “pKB or pA2 for antagonists (*) at human 5-HT2C receptor” value was 8.9*.

Turning to `CSc1ccc2c(c1)C(N1CCN(C)CC1)Cc1ccccc1S2` (stereo not shown) [Methiothepin], the “pKB or pA2 … at human 5-HT4 receptor” value in [6] is listed as <6.0*.

Consider `Cc1cc2c(cc1Cl)N(C(=O)Nc1cccc3ncccc13)CC2` [SB-215505, 6-chloro-5-methyl-N-(5-quinolyl)-2,3-dihydro-1H-indole-1-carboxamide], for which, in [10], the “potency as 5-HT2B receptor antagonist” value is 9.9; the “selectivity for 5-HT2B over 5-HT2C and 5-HT2A receptors” value is 100 fold.

As to `NC1=N[C@H](O)[C@H]2[C@H]3O[C@]4(O)O[C@@H]([C@@H](O)[C@@]2(N1)[C@@H]4O)[C@]3(O)CO` [tetrodotoxin], the “effect on contractile responses of colon smooth muscle to electrical stimulation” value in [9] is listed as “inhibited”.

As for “N-(1-methyl-1H-indol-5-yl)N′-(-bezyl)-2,3,4,9-tetrahydro-1H-beta-carboline [LY-23728]”, in [10], the “selectivity for 5-HT2B over 5-HT2C and 5-HT2A receptors” value is 100 fold.

For the compound `COC(=O)[C@@H]1[C@H]2C[C@H]3c4[nH]c5ccccc5c4CCN3C[C@@H]2CC[C@@H]1O` [Yohimbine], the “affinity at human 5-HT2C receptor” value in [11] is less than 5.0.

Turning to `CC(C)c1cc(-c2ccc(F)c3ccccc23)nc(N)n1` [RS 127445, 2-amino-4-(4-fluoronaphth-1-yl)-6-isopropylpyrimidine], the Kb in [3] was 0.398 nM. The “pKB or pA2 for antagonists (*) at human 5-HT2C receptor” value in assay [11] (marked *) is reported as 6.4*. For the same compound, the “affinity from binding data (#) at human 5-HT2B receptor” value in [4] (marked #) is listed as 9.5^#.

Turning to `Cn1ccc2cc3c(cc21)CCN3C(=O)Nc1cccnc1` [SB 206553, 5-methyl-1-(3-pyridylcarbamoyl)-1,2,3,5-tetrahydropyrrolo [2,3-f]indole], the “affinity from binding data (#) at human 5-HT2A receptor” value in assay [1] (marked #) is recorded as 6.0^#. For the same compound, in assay [7], the “pKB or pA2 for antagonists (*) at human 5-HT2B receptor” value was 9.0*. In [3], the Kb was 3.16 nM and the “antagonist potency against 5-HT response in human colon” value amounted to 8.5.

Take `O=C(c1ccc(F)cc1)C1CCN(CCn2c(=O)[nH]c3ccccc3c2=O)CC1` [Ketanserin]: the “pKB or pA2 … at human 5-HT4 receptor” value in assay [6] (marked *) is 4.7*.
